Laboratory results reported in patent US5605905A, “Antitumoral compounds” (Universidad Complutense de Madrid, priority 1992, dated 1997).
≈ marks a conversion by molar mass, not a printed value.

Assays:
[1] = system: P-388 cells; assay: Assay against P-388 cells (lymphoid neoplasm from DBA/2 mouse), cell count after three days; type: cell-based; settings: P388, 72 h, 1×10^4 cells per well, three days of incubation, triplicate
Protocol: Compounds were diluted in DMSO/MeOH/Acetone (1:4.5:4.5) and they were tested at different concentrations. The solvent was allowed to evaporate before the cells were seeded.
The following antitumoral assay, employing the current screening protocol has been carried out using the following cell line:
P-388 (lymphoid neoplasm from DBA/2 mouse).
Assay Against P-388 Cells (Lymphoidneoplasm from DBA/2 Mouse )
P-388 cells were seeded into 16 mm wells at 1×10^4 cells per well in 1 ml aliquots of MEM 10C containing different concentrations of the compound. All determinations were carried out in triplicate. A separate set of cultures without drug was counted daily to ensure that the cells remained in exponential growth over the period of observation. After three days of incubation, cells were counted and the IC50 was determined.

[2] = system: Gram positive bacteria; settings: background, literature; cited from earlier work
[3] = system: thymidylate synthetase; settings: background, literature; cited from earlier work
[4] = background statement, no test described; cited from earlier work

| SMILES | IC50 [1] | other results |
| --- | --- | --- |
| CCC1C(C)=CNC2=C1C(=O)c1c(C)cc(=O)[nH]c1C2=O (centres unmarked) [Compound 1, 4,6-dimethyl-5-5,8-dihydro-1H-1,8-diazaanthracene-2,9,10-trione] | 1 µg/mL (≈ 3.52 µM) | – |
| Cc1cc(=O)[nH]c2c1C(=O)C1=C(NC=CC1c1ccccc1)C2=O (centres unmarked) [Compound 2, 4-methyl-5-phenyl-5,8-dihydro-1H-1,8-diazaanthracene-2,9,10-trione] | 0.25 µg/mL (≈ 0.785 µM) | – |
| CCc1cc2c([nH]c1=O)C(=O)c1ncc(C)cc1C2=O [Compound 7, 3-ethyl-6-methyl-1H-1,8-diazaanthracene-2,9,10-trione] | 0.2 µg/mL (≈ 0.746 µM) | – |
| Cc1cc2c([nH]c1=O)C(=O)c1ccccc1C2=O [Compound 8, 3-Methyl-1H-1azaanthracene-2,9,10-trione] | 0.2 µg/mL (≈ 0.836 µM) | – |
| CCCc1c2c([nH]c(=O)c1C)C(=O)c1[nH]c(=O)c(C)c(CCC)c1C2=O [Diazaquinomicyn A] | – | activity against Gram positive bacteria [2]: good activity; capacity to inhibit the thymidylate synthetase [3]: capacity to inhibit; antitumoral activity [4]: inactive |

The next lines start with results.

| IC50 [1] | SMILES | other results |
| --- | --- | --- |
| 20 µg/mL (≈ 55.3 µM) | Cc1cc(=O)[nH]c2c1C(=O)C1=C(NC=CC1c1ccc(N(C)C)cc1)C2=O (centres unmarked) [Compound 3, 5-(4-Dimethylamino-phenyl) 4-methyl-5,8-dihydro-1H-1,8-diazaanthracene-2,9,10-trione] | – |
| 1 µg/mL (≈ 3.93 µM) | Cc1ccnc2c1C(=O)c1c(C)cc(=O)[nH]c1C2=O [Compound 4, 4,5-dimethyl-1H-1,8-diazaanthracene-2,9,10-trione] | – |
| 0.5 µg/mL (≈ 1.86 µM) | CCc1cnc2c(c1)C(=O)c1c(C)cc(=O)[nH]c1C2=O [Compound 5, 6-ethy-4-methyl-1H-1,8-diazaanthracene-2,9,10-trione] | – |
| 1 µg/mL (≈ 2.78 µM) | Cc1cc(=O)[nH]c2c1C(=O)c1c(-c3ccc(N(C)C)cc3)ccnc1C2=O [Compound 6, 5-(p-dimethylaminophenyl)-4-methyl-1H-1,8-diazaanthracene-2,9,10-trione] | – |
